Test results taken from ChEMBL document CHEMBL5726652, “Oxazole orexin receptor antagonists” (2017).

Biological target: T1, Orexin receptor type 2 (Homo sapiens, UniProt O43614)
T1 sequence (O43614 whole entry): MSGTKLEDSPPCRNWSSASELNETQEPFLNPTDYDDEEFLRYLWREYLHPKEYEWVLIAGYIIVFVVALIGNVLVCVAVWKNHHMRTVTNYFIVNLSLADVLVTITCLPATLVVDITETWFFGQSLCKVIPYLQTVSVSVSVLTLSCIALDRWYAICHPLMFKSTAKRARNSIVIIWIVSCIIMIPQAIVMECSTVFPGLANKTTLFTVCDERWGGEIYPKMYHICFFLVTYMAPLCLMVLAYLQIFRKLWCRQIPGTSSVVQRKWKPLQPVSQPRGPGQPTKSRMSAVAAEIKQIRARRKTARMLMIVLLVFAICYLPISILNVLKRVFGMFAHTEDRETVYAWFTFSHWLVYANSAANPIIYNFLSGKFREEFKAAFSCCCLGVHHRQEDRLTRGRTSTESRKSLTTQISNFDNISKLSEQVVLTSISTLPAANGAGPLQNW
Experiment: FLIPR Ca2+ Flux Assay: For intracellular calcium measurements, Chinese hamster ovary (CHO) cells expressing the rat orexin-1 receptor or the human orexin-2 receptor, are grown in Iscove's modified DMEM containing 2 mM L-glutamine, […], 1% hypoxanthine-thymidine supplement, 100 U/ml penicillin, 100 μg/ml streptomycin and 10% heat-inactivated fetal calf serum (FCS). The cells are seeded at 20,000 cells/well into Becton-Dickinson black 384-well clear bottom sterile plates coated with poly-D-lysine. All reagents were from GIBCO-Invitrogen Corp. The seeded plates are incubated overnight at 37° C. and 5% CO2. Ala-6,12 human orexin-A as the agonist is prepared as a 1 mM stock solution in 1% bovine serum albumin (BSA) and diluted in assay buffer (HBSS containing 20 mM HEPES, 0.1% BSA and 2.5 mM probenecid, pH7.4) for use in the assay at a final concentration of 70 pM. Test compounds are prepared as 10 mM stock solution in DMSO, then diluted in 384-well plates, first in DMSO, then assay buffer. On the day of the assay, cells are washed 3 times with 100 μl assay buffer and then incubated for 60 min (37° C., 5% CO2) in 60 μl assay buffer containing 1 μM Fluo-4AM ester, 0.02% pluronic acid, and 1% BSA. The dye loading solution is then aspirated and cells are washed 3 times with 100 μl assay buffer. 30 μl of that same buffer is left in each well. […]
Assay type: cell-based

COC(=O)Cc1nc([C@@H]2CC[C@@H](C)N(C(=O)c3ccccc3-n3nccn3)C2)oc1-c1ccccc1
IC50: 0.033 µM

Cc1oc([C@@H]2CC[C@@H](C)N(C(=O)c3cscc3-c3ncccn3)C2)nc1C(C)(C)O
IC50: 0.056 µM
